# Results taken from ChEMBL document CHEMBL1909514, “Imidazo[2,1-b]thiazole guanylhydrazones as RSK2 inhibitors” (Eur J Med Chem, 2011).
# Calls of active or inactive are those of the source. How the calls were made is not given here.
# Experiments:
# [1] = target: T1, Aurora kinase A (Homo sapiens) (UniProt O14965); assay: Inhibition of Aurora kinase A assessed as inhibition of substrate phosphorylation using fluorescent peptide substrate up to 100 uM by microplate reader assay
# T1 sequence (whole entry): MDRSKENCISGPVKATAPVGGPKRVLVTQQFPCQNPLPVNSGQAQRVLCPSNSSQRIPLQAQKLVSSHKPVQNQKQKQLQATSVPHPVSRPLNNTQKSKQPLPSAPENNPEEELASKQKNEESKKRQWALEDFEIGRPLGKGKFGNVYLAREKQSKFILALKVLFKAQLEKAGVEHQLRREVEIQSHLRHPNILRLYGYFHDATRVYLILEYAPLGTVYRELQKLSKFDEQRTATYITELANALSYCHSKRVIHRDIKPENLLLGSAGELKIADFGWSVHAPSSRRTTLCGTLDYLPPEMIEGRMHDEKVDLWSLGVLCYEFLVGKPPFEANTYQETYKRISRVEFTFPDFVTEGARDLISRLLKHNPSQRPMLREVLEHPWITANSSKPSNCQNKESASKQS
# [2] = tested on: HOP-62; assay: Growth inhibition of human HOP62 cells after 48 hrs by SRB assay; format: functional; details: HOP-62, 48 h
# [3] = tested on: NCI-H23; assay: Growth inhibition of human NCI-H23 cells after 48 hrs by SRB assay; format: functional; details: NCI-H23, 48 h
# [4] = tested on: SF-268; assay: Growth inhibition of human SF268 cells after 48 hrs by SRB assay; format: functional; details: SF-268, 48 h
# [5] = tested on: MDA-MB-468; assay: Growth inhibition of human MDA-MB-468 cells after 48 hrs by SRB assay; format: functional; details: MDA-MB-468, 48 h
# [6] = tested on: Malme-3M; assay: Growth inhibition of human MALME-3M cells after 48 hrs by SRB assay; format: functional
# [7] = tested on: OVCAR-4; assay: Growth inhibition of human OVCAR4 cells after 48 hrs by SRB assay; format: functional; details: OVCAR-4, 48 h
# [8] = tested on: UACC-62; assay: Growth inhibition of human UACC62 cells after 48 hrs by SRB assay; format: functional; details: UACC-62, 48 h
# [9] = tested on: SK-MEL-28; assay: Growth inhibition of human SK-MEL-28 cells after 48 hrs by SRB assay; format: functional; details: SK-MEL-28, 48 h
# [10] = tested on: HCT-116; assay: Growth inhibition of human HCT116 cells after 48 hrs by SRB assay; format: functional; details: HCT-116, 48 h
# [11] = tested on: HCT-15; assay: Growth inhibition of human HCT15 cells after 48 hrs by SRB assay; format: functional; details: HCT-15, 48 h
# [12] = Growth inhibition of human Hs 578T cells after 48 hrs by SRB assay; format: functional
# [13] = tested on: SF-539; assay: Growth inhibition of human SF539 cells after 48 hrs by SRB assay; format: functional; details: SF-539, 48 h
# [14] = tested on: 786-0; assay: Growth inhibition of human 786-0 cells after 48 hrs by SRB assay; format: functional; details: 786-0, 48 h
# [15] = target: Ribosomal protein S6 kinase alpha-3 (Homo sapiens, UniProt P51812)
# Description: Inhibition of RSK2 assessed as inhibition of substrate phosphorylation using fluorescent peptide substrate by microplate reader assay
# [16] = target: Ribosomal protein S6 kinase alpha-1 (Homo sapiens, UniProt Q15418)
# [17] = target: T2, Serine/threonine-protein kinase Chk1 (Homo sapiens, UniProt O14757)
# T2 sequence (O14757 whole entry): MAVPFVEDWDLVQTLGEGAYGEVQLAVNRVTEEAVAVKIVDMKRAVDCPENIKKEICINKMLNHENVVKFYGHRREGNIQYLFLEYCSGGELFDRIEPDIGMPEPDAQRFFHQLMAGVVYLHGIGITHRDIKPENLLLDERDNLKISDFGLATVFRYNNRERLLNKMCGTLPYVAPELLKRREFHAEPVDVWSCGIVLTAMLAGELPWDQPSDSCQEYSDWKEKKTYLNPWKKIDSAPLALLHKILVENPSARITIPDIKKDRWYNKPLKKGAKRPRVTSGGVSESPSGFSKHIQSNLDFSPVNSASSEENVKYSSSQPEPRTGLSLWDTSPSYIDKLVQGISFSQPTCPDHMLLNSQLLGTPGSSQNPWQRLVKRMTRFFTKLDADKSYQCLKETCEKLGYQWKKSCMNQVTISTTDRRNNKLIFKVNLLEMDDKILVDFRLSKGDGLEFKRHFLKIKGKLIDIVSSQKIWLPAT
# [18] = tested on: M14; assay: Growth inhibition of human M14 cells after 48 hrs by SRB assay; format: functional; details: M14, 48 h
# [19] = tested on: TK-10; assay: Growth inhibition of human TK10 cells after 48 hrs by SRB assay; format: functional; details: TK-10, 48 h
# [20] = target: Serine/threonine-protein kinase Chk2 (Homo sapiens, UniProt O96017)
# Description: Inhibition of CHK2 assessed as inhibition of substrate phosphorylation using fluorescent peptide substrate by microplate reader assay
# [21] = tested on: SNB-75; assay: Growth inhibition of human SNB75 cells after 48 hrs by SRB assay; format: functional; details: SNB-75, 48 h
# [22] = tested on: KM12; assay: Growth inhibition of human KM12 cells after 48 hrs by SRB assay; format: functional; details: KM12, 48 h
# [23] = tested on: SF-295; assay: Growth inhibition of human SF295 cells after 48 hrs by SRB assay; format: functional; details: SF-295, 48 h
# [24] = tested on: HCC 2998; assay: Growth inhibition of human HCC2998 cells after 48 hrs by SRB assay; format: functional; details: HCC 2998, 48 h
# [25] = tested on: T47D; assay: Growth inhibition of human T47D cells after 48 hrs by SRB assay; format: functional
# [26] = tested on: SK-MEL-5; assay: Growth inhibition of human SK-MEL-5 cells after 48 hrs by SRB assay; format: functional; details: SK-MEL-5, 48 h
# [27] = read-out: pLC50 (the source's name) (converted)
# Sequence of Serine/threonine-protein kinase Chk2 (O96017 whole entry): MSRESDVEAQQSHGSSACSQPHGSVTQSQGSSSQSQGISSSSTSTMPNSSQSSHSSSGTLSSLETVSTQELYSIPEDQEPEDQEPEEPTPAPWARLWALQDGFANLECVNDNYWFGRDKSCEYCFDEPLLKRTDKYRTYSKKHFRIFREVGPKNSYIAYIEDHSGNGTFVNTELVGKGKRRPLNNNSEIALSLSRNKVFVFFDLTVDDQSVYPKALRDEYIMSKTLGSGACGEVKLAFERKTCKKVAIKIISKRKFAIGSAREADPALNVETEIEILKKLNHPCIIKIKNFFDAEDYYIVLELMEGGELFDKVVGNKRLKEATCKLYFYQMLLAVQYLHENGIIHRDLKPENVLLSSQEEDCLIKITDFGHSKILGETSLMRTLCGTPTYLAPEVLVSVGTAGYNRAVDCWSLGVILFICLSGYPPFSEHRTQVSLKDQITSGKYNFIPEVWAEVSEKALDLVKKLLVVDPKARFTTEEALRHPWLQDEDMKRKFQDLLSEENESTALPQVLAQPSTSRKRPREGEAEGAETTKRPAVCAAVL
# Sequence of Ribosomal protein S6 kinase alpha-1 (Q15418 whole entry): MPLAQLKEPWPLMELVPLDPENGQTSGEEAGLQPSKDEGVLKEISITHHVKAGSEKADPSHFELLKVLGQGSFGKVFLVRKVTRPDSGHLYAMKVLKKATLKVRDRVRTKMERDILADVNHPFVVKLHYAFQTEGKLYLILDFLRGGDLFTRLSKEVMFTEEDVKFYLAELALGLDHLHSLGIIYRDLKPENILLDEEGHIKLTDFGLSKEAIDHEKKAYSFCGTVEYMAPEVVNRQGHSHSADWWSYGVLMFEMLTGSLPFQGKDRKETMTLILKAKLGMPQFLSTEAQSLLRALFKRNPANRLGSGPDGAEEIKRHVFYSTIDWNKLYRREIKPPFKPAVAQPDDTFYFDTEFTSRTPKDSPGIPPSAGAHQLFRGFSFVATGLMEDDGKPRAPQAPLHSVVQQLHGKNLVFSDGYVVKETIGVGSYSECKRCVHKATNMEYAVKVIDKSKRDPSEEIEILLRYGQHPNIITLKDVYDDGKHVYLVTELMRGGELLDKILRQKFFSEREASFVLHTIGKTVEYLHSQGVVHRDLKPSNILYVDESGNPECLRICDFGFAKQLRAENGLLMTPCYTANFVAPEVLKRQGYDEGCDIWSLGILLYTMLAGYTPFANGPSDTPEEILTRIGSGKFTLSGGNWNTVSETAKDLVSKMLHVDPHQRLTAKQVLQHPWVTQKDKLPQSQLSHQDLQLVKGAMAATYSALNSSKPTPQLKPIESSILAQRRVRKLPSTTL
# Sequence of Ribosomal protein S6 kinase alpha-3 (P51812 whole entry): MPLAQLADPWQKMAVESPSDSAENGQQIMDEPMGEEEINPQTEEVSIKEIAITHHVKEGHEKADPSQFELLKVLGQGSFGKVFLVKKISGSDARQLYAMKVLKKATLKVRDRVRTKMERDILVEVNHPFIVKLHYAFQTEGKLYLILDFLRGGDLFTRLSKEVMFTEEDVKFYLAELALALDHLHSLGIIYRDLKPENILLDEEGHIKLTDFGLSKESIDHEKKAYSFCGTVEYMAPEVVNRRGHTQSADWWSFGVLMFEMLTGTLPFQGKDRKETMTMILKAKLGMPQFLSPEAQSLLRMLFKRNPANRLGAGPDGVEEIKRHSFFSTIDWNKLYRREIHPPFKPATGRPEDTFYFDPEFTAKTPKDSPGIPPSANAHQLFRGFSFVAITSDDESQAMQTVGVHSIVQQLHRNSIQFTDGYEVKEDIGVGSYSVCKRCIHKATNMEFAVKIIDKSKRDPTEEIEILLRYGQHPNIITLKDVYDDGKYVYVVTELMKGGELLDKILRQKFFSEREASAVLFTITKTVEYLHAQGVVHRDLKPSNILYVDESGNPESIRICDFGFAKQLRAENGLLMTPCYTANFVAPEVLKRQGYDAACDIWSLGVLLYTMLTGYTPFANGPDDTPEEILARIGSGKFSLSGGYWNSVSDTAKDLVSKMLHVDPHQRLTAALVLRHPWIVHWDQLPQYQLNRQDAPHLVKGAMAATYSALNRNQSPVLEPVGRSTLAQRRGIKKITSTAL
smiles,measurement,setting,value
N=C(N)N/N=C\c1c(-c2ccc([N+](=O)[O-])cc2)nc2sc(Br)cn12,inhibition,[1],inactive
same,GI50,[2],191 nM
same,CC50,[2]; [27],851 nM
same,TGI,[2]; read-out: pTGI (converted),3980 nM
same,GI50,[3],389 nM
same,CC50,[3]; [27],3980 nM
same,TGI,[3]; read-out: pTGI (converted),4470 nM
same,GI50,[4],219 nM
same,TGI,[4]; read-out: pTGI (converted),447 nM
same,GI50,[5],158 nM
same,CC50,[5]; [27],646 nM
same,TGI,[5]; read-out: pTGI (converted),3240 nM
same,GI50,[6],1000 nM
same,TGI,[6]; read-out: pTGI (converted),4170 nM
same,GI50,[7],191 nM
same,CC50,[7]; [27],776 nM
same,TGI,[7]; read-out: pTGI (converted),380 nM
same,GI50,[8],347 nM
same,CC50,[8]; [27],4570 nM
same,TGI,[8]; read-out: pTGI (converted),4470 nM
same,GI50,[9],191 nM
same,CC50,[9]; [27],676 nM
same,TGI,[9]; read-out: pTGI (converted),363 nM
same,GI50,[10],166 nM
same,CC50,[10]; [27],832 nM
same,TGI,[10]; read-out: pTGI (converted),302 nM
same,GI50,[11],302 nM
same,CC50,[11]; [27],> 100000 nM
same,TGI,[11]; read-out: pTGI (converted),26900 nM
same,GI50,[12],288 nM
same,CC50,[12]; [27],3470 nM
same,TGI,[12]; read-out: pTGI (converted),933 nM
same,GI50,[13],372 nM
same,CC50,[13]; [27],3720 nM
same,TGI,[13]; read-out: pTGI (converted),1260 nM
same,GI50,[14],174 nM
same,CC50,[14]; [27],575 nM
same,TGI,[14]; read-out: pTGI (converted),316 nM
same,IC50,[15],1230 nM
same,IC50,[16],1180 nM
same,IC50,[17],13800 nM
same,GI50,[18],229 nM
same,CC50,[18]; [27],1660 nM
same,TGI,[18]; read-out: pTGI (converted),537 nM
same,GI50,[19],269 nM
same,CC50,[19]; [27],4470 nM
same,TGI,[19]; read-out: pTGI (converted),1100 nM
same,IC50,[20],88500 nM
same,GI50,[21],204 nM
same,CC50,[21]; [27],1290 nM
same,TGI,[21]; read-out: pTGI (converted),4680 nM
same,GI50,[22],200 nM
same,CC50,[22]; [27],759 nM
same,TGI,[22]; read-out: pTGI (converted),389 nM
same,GI50,[23],575 nM
same,CC50,[23]; [27],6310 nM
same,TGI,[23]; read-out: pTGI (converted),4470 nM
same,GI50,[24],234 nM
same,CC50,[24]; [27],2340 nM
same,TGI,[24]; read-out: pTGI (converted),646 nM
same,GI50,[25],170 nM
same,TGI,[25]; read-out: pTGI (converted),3630 nM
same,GI50,[26],490 nM
same,CC50,[26]; [27],5370 nM
same,TGI,[26]; read-out: pTGI (converted),1950 nM
